Source: patent US9982011B2, “Legumain activated doxorubicin derivative as well as preparation method and application thereof” (priority 2012, dated 2018)
“Also recorded” adds a separate entry of the source.

Key:
4T1 cells = assay: Efficacy in 4T1 tumor metastasis (lung) model in BALB/C mice; assay type: in vivo; details: lung, day 27; i.p. daily for 8 days; S1, S2 10 μmol/kg, doxorubicin hydrochloride 3 μmol/kg
Excerpt: Test purpose: to investigate the anti-tumor efficacy of S1 and S2 in a tumor metastasis treatment model from BALB/C mice.
Test drug: S1 and S2 injections, and doxorubicin hydrochloride injection, diluted to corresponding concentrations with physiological saline when testing.
1. Animal: BALB/C mice of 6-8 weeks old, all female.
1) 4T1 cells were purchased from American type culture collection (ATCC) and identified according the specification provided by ATCC. Cells were cultivated in DMEM culture medium containing 10% fetal bovine serum at 37° C. and 5% CO2. The cells were passaged for every three days and cells within the 15th passage were used.
2) Production of tumor metastasis. 10^6 […] were subcutaneously injected to the back of the BALB/C mice. Mice were randomly grouped after the tumor grew to about 1.5 cm. The subcutaneous tumor was removed by surgery and drug treatment began. Mice were killed after anesthesia on day 27. The whole lung was taken out and put into Bouin's solution for staining. The number of the tumor metastasized to lung was counted with anatomical microscope.
3) Course of treatment. According to the clinical application of S1 and S2, drugs were intraperitoneally injected. A dose of 10 μmol/kg (<1/10 MTD) was used for the S1 treatment group, 10 μmol/kg (<1/10 MTD) for the S2 treatment group, and 3 μmol/kg (>1/2 MTD) for doxorubicin hydrochloride. The control group was administered with physiological saline. The drugs were administered daily for 8 days.

Cathepsin B = Cathepsin B (Homo sapiens, UniProt P07858); assay: Cathepsin enzymatic activity with Z-Phe-Arg-NMec substrate; assay type: biochemical; details: pH 6.0, FIG. 2
Excerpt: Furthermore, Z-Phe-Arg-NMec was used as substrate to analyze the activity of cathepsin under pH 6.0. […] Cathepsin B was highly expressed in the lysosome of the tumor cell. It could degrade type I collagen, activate interstitial procollagenase and type IV procollagenase, and degrade type I, II, III and IV collagen fibers in the stroma, thus anticipating infiltration and metastasis of tumor.

serum albumin = serum albumin (Mus musculus, UniProt P07724); details: blood taken 10 minutes after intravenous tail injection
Sequence of serum albumin (P07724 25-608): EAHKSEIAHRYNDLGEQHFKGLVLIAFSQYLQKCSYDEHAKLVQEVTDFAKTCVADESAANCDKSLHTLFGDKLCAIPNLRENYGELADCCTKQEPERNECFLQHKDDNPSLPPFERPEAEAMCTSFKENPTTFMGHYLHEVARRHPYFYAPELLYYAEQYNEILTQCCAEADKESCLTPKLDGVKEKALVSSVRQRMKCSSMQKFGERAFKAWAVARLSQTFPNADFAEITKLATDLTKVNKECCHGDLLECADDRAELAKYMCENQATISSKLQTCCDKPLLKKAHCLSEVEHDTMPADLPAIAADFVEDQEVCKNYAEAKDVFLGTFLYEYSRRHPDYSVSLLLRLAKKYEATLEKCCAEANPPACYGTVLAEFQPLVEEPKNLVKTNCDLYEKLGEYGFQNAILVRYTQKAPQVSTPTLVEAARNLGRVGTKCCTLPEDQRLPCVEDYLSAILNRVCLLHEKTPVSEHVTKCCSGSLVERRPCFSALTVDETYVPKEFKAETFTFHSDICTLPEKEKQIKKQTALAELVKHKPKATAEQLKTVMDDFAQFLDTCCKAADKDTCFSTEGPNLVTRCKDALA
Description: Bloods were taken after 10 minutes and centrifuged to obtain serum. The proteins in the serum were precipitated by 70% ethanol.

`COc1cccc2c1C(=O)c1c(O)c3c(c(O)c1C2=O)CC(O)(C(=O)CO)CC3OC1CC(NC(=O)C(CC(C)C)NC(=O)C(CC(N)=O)NC(=O)C(C)NC(=O)C(C)NC(=O)CCCCCN2C(=O)C=CC2=O)C(O)C(C)O1` (stereo not shown) [Example S1, EMC-AANL-Doxorubicin] was tested, and the “Inhibitory rate on metastasis” value (4T1 cells) was 91.6%, the “Number of metastasized tumor” value (4T1 cells) was 12 ± 4 and the “Inhibition of enzymatic activity of cathepsin” value (Cathepsin B) was “could effectively inhibit the enzymatic activity of cathepsin”. For the same compound, the “Binding to serum albumin / plasma protein in blood” value (serum albumin) was “most of S1 could bind to serum albumin and thus precipitated; also recorded: most of S1 bound to the plasma protein”.
